From US20100216779A1 (GLAXOSMITHKLINE LLC, priority 2007, published 2010) come the findings set out here.

In data set [1] the test system is NCI-H929 (multiple myeloma). The experiment in a line: Inhibition of cell proliferation, CellTiter-Glo, NCI-H929. In kind it is cell-based. The conditions noted are these: Homo sapiens, 72 h. Summed up:
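Cells were grown in medium with 10% FBS at 37° C, 5% CO2. Cell number was read as CellTiter-Glo luminescence (cellular ATP), with untreated wells as control.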

For data set [2], the target named is T1, IR (NIH-3T3 cells over expressing human IGF-1R or IR) (Homo sapiens, UniProt P06213).
T1 construct: expressed in transfected cells; host or cells: NIH-3T3 (mouse fibroblasts)
T1 sequence (P06213 28-1382): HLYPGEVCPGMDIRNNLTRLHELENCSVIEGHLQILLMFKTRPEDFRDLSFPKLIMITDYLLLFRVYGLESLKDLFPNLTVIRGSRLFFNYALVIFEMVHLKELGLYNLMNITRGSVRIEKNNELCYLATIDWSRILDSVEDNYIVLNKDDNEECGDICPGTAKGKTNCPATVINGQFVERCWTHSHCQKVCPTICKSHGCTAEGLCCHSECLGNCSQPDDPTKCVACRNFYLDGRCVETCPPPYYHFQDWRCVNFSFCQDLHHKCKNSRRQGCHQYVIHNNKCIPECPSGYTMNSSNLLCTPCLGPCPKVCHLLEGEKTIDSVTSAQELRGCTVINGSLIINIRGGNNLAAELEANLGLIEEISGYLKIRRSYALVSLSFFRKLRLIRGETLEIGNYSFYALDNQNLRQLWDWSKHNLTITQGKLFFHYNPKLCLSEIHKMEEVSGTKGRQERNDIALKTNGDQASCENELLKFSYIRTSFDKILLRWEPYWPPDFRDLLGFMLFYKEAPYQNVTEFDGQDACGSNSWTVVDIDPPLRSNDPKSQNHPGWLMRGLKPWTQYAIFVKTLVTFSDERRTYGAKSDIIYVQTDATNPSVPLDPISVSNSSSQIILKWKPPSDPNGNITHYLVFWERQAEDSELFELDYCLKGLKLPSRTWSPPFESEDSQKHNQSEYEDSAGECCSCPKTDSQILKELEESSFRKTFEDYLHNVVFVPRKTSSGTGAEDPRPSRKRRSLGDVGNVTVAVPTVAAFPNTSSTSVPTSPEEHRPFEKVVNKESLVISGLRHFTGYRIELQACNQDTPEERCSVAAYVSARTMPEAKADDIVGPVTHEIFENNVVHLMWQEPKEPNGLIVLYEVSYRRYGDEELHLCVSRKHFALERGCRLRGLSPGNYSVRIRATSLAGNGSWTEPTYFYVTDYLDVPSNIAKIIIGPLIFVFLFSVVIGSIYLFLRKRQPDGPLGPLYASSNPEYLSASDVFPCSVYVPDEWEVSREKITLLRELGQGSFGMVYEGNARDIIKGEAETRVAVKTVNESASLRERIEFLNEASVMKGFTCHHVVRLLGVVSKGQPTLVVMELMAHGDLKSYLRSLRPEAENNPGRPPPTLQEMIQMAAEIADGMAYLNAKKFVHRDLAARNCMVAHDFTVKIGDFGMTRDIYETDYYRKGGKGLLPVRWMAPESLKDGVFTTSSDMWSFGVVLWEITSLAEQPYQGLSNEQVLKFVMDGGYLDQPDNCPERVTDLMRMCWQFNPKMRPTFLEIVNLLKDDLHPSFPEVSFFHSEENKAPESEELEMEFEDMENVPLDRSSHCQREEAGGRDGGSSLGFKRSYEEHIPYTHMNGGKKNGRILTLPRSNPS
The experiment in a line: IR cellular autophosphorylation (DELFIA). The class given is cell-based. The conditions noted are these: NIH-3T3 cells over expressing IR, insulin stimulated. In short, it runs like this: (§1)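 Read-out: DELFIA on lysates, receptor-specific capture antibody plus europium-labelled anti-phosphotyrosine, reported as % of IGF-1- or insulin-stimulated signal. Transfected NIH-3T3 cells got compound (30 uM–1.5 nM, 2 h) before a 15 min ligand pulse: IGF-1 30 ng/mL for IGF-1R, insulin 3 ug/mL for IR.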

Another data set deals with COLO205 (colon). Nature of the data set: Inhibition of cell proliferation, CellTiter-Glo, COLO205. In kind it is cell-based. The conditions noted are these: Homo sapiens, COLO 205, 72 h. Summed up:
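Exponentially growing COLO205 cells in medium with 10% FBS were plated below 2000 cells/well at 37 °C, 5% CO2. Untreated wells served as controls.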

The target of data set [3] is T2, human IGF-1R (NIH-3T3 cells over expressing human IGF-1R) (Homo sapiens, UniProt P08069).
T2 construct: expressed in transfected cells; host or cells: NIH-3T3 (mouse fibroblasts)
T2 sequence (P08069 31-1367): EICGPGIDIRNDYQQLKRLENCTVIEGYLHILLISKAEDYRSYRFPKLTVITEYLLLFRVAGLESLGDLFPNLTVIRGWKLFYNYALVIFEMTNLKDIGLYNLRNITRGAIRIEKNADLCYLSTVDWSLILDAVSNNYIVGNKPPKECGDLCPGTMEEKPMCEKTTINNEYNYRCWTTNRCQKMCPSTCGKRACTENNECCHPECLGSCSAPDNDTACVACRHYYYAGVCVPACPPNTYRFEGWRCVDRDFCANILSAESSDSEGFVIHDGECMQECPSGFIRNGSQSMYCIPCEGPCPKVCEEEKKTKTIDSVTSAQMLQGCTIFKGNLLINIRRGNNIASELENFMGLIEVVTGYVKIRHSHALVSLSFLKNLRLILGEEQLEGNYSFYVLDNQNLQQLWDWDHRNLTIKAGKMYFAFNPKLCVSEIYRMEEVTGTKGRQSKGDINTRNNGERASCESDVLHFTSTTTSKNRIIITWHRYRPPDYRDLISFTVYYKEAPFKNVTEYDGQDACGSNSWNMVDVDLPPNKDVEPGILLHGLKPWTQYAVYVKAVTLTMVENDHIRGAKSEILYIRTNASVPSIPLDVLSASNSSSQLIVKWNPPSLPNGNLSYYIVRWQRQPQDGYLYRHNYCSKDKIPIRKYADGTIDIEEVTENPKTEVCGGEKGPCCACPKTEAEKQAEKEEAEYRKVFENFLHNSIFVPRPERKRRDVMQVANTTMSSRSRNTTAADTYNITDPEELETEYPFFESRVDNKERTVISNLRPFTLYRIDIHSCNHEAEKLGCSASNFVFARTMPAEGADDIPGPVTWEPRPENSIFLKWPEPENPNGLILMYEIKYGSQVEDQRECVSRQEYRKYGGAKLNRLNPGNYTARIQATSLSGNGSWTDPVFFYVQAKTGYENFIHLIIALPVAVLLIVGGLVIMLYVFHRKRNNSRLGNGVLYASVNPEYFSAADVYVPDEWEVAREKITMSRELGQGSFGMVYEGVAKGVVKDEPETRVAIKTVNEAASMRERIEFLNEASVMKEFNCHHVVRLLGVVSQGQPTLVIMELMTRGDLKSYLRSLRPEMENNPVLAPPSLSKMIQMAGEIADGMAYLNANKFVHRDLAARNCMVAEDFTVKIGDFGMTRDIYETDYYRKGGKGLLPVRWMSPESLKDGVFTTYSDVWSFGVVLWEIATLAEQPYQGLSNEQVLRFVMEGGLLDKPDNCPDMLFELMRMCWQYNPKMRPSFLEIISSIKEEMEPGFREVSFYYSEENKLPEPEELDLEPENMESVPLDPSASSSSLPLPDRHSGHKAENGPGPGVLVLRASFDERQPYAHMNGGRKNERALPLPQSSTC
The experiment in a line: IGF-1R cellular autophosphorylation (DELFIA). In kind it is cell-based. The settings on record: IGF-1 stimulated. Summed up:
as §1

The test system of data set [4] is LISN cell (mouse 3T3 fibroblasts transduced with human IGF-1R) tumors. The experiment in a line: In vivo efficacy, mice bearing LISN cell tumors. The conditions noted are these: for tumor growth inhibition at day 21: LISN (start approx. 362 mm^3). On the procedure: E. In Vivo Efficacy—Mouse Models
The efficacy of the compounds of Examples 57 and 58 were assessed together in an in vivo efficacy experiment performed on mice bearing LISN cell (mouse 3T3 fibroblasts transduced with human IGF-1R) tumors. Fifty six female nude mice bearing subcutaneous LISN cell tumors were measured for tumor size and body weight and block randomized into seven groups of eight mice with an equal average tumor volume of approximately 200 mm3. Mice were dosed with either vehicle (20% SBE pH3.5), Example 57 or Example 58. The dosing schedules for each compound were based on previous experiments with the compounds and doses chosen to give the highest tumor growth inhibition and a dose response. Example 58 was dosed at 30, 100 and 300 mg/kg QD for 21 days while Example 57 was dosed at 30 mg/kg QD for 21 days, 15 mg/kg BID for 21 days and 30 mg/kg QDx3 days/week for 3 weeks.
The tumors on mice being treated with vehicle grew with the expected exponential growth throughout the 21 day study. […] The lower dose of 30 mg/kg of Example 58 achieved 28% tumor growth inhibition.
The efficacy of the compounds of Examples 237 and 219 were assessed together in an in vivo efficacy experiment performed on mice bearing LISN cell (mouse 3T3 fibroblasts transduced with human IGF-1R) tumors. Sixty four female nude mice bearing subcutaneous LISN cell tumors were measured for tumor size and body weight and block randomized into eight groups of eight mice with an equal average tumor volume of approximately 362 mm^3. Mice were dosed with either vehicle (20% SBE pH3.5), Example 237 or Example 219. The dosing schedules for each compound were based on previous experiments with the compounds and doses chosen to give the highest tumor growth inhibition and a dose response. Example 237 was administered at 30 and 60 mg/kg QD for 21 days and 30 mg/kg BID for 21 days while Example 219 was administered at 50 and 100 mg/kg QD for 21 days, 25 and 50 mg/kg BID for 21 days.
The tumors on mice being treated with vehicle grew with the expected exponential growth throughout the 21 day study. […] The lower dose of 30 mg/kg QD of Example 237 achieved 15% tumor growth inhibition at day 21 (note: 2 animals were euthanized prior to the last measurement). […] This recovered to 3% by the end of dosing and fully recovered after dosing was concluded. […] This recovered fully within 4 days after the completion of dosing.

Structures are written as SMILES.

Take `CCc1cc(Nc2nccc(-c3c(-c4ccc(OC)c(C(=O)Nc5c(F)cccc5F)c4)nc4ccccn34)n2)c(OC)cc1N1CCC(N2CCN(S(C)(=O)=O)CC2)CC1` [Example 237, N-(2,6-difluorophenyl)-5-(3-{2-[(5-ethyl-2-(methyloxy)-4-{4-[4-(methylsulfonyl)-1-piperazinyl]-1-piperidinyl}phenyl)amino]-4-pyrimidinyl}imidazo[1,2-a]pyridin-2-yl)-2-(methyloxy)benzamide]: the IC50 (commonly the concentration needed to halve the response being measured) in data set [1] was below 250 nM; in data set [2], below 100 nM; in the data set on COLO205 (colon), below 250 nM; in data set [3], below 100 nM. Also, the “tumor growth inhibition at day 21” value in data set [4] (30 mg/kg BID for 21 days) worked out at 84%; in data set [4] (30 mg/kg QD for 21 days, 2 animals euthanized prior to the last measurement) it was 15%; in data set [4] (60 mg/kg QD for 21 days), 41%. For the same compound, in data set [4] (LISN, 30 mg/kg BID), the “body weight loss by the end of dosing” value is 3%. Also, the “initial body weight loss” value in data set [4] (LISN, 30 mg/kg BID) came out at 6%. Also, the “effect on body weight loss” value in data set [4] (LISN, other groups (30 and 60 mg/kg QD)) was “no effect”.
Regarding `CCCN1CCC(c2cc(OC)c(Nc3nccc(-c4c(-c5ccc(OC)c(C(=O)Nc6c(F)cccc6F)c5)nc5ccccn45)n3)cc2C)CC1` [Example 157, N-(2,6-difluorophenyl)-5-[3-(2-{[5-methyl-2-(methyloxy)-4-(1-propyl-4-piperidinyl)phenyl]-amino}-4-pyrimidinyl)imidazo[1,2-a]pyridin-2-yl]-2-(methyloxy)benzamide], the IC50 is below 250 nM in data set [1], below 100 nM in data set [2], below 250 nM in the data set on COLO205 (colon) and below 100 nM in data set [3].
For `CCOc1ccc(-c2nc3ccccn3c2-c2ccnc(Nc3cc(C)c(N4CCN(CCOC)CC4)cc3OC)n2)cc1C(=O)Nc1c(F)cccc1F` [Example 241, N-(2,6-difluorophenyl)-2-(ethyloxy)-5-(3-{2-[(5-methyl-2-(methyloxy)-4-{4-[2-(methyloxy)ethyl]-1-piperazinyl}phenyl)amino]-4-pyrimidinyl}imidazo[1,2-a]pyridin-2-yl)benzamide], the IC50 in data set [1] was below 250 nM; in data set [2], below 100 nM; in the data set with COLO205 (colon), 250 to 1000 nM; in data set [3], below 100 nM.
`CCOc1cc(N2CCN(CCS(C)(=O)=O)CC2)ccc1Nc1nccc(-c2c(-c3ccc(OCC)c(C(=O)Nc4c(F)cccc4F)c3)nc3ccccn23)n1` [Example 144, N-(2,6-difluorophenyl)-2-(ethyloxy)-5-(3-{2-[(2-(ethyloxy)-4-{4-[2-(methylsulfonyl)ethyl)-1-piperazinyl}phenyl)amino]-4-pyrimidinyl}imidazo[1,2-a]pyridin-2-yl)benzamide]: the IC50 in data set [1] was below 250 nM; in data set [2] it was below 100 nM; in the data set on COLO205 (colon) it was below 250 nM; in data set [3], below 100 nM.
For the compound `CCCN1CCC(c2ccc(Nc3nccc(-c4c(-c5cccc(C(=O)Nc6c(F)cccc6F)c5)nc5ccccn45)n3)c(OCC)c2)CC1` [Example 155, N-(2,6-difluorophenyl)-3-[3-(2-{[2-(ethyloxy)-4-(1-propyl-4-piperidinyl)phenyl]amino}-4-pyrimidinyl)imidazo[1,2-a]pyridin-2-yl]benzamide], the IC50 was below 250 nM in data set [1], below 100 nM in data set [2], 250 to 1000 nM in the data set with COLO205 (colon) and below 100 nM in data set [3].
In the case of `CCc1cc(Nc2nccc(-c3c(-c4cccc(C(=O)Nc5c(F)cccc5F)c4)nc4ccccn34)n2)c(OC)cc1N1CCC(N2CCN(S(C)(=O)=O)CC2)CC1` [Example 244, N-(2,6-difluorophenyl)-3-(3-{2-[(5-ethyl-2-(methyloxy)-4-{4-[4-(methylsulfonyl)-1-piperazinyl]-1-piperidinyl}phenyl)amino]-4-pyrimidinyl}imidazo[1,2-a]pyridin-2-yl)benzamide], the concentration for half-maximal inhibition (IC50) was 250 to 1000 nM in data set [1], below 100 nM in data set [2], 250 to 1000 nM in the data set with COLO205 (colon) and below 100 nM in data set [3].
Take `CCOc1cc(N2CCC(N3CCN(S(C)(=O)=O)CC3)CC2)ccc1Nc1nccc(-c2c(-c3ccc(OCC)c(C(=O)Nc4c(F)cccc4F)c3)nc3ccccn23)n1` [Example 222, N-(2,6-difluorophenyl)-2-(ethyloxy)-5-(3-{2-[(2-(ethyloxy)-4-{4-[4-(methylsulfonyl)-1-piperazinyl]-1-piperidinyl}phenyl)amino]-4-pyrimidinyl}imidazo[1,2-a]pyridin-2-yl)benzamide]: the half-inhibitory concentration (IC50) in data set [1] is below 250 nM; in data set [2] it was below 100 nM; in the data set with COLO205 (colon), below 250 nM; in data set [3] it was below 100 nM.
With `CCCc1cc(C2CCN(CCS(C)(=O)=O)CC2)ccc1Nc1nccc(-c2c(-c3ccc(OCC)c(C(=O)Nc4c(F)cccc4F)c3)nc3ccccn23)n1` [Example 168, N-(2,6-difluorophenyl)-2-(ethyloxy)-5-(3-{2-[(4-{1-[2-(methylsulfonyl)ethyl]-4-piperidinyl}-2-propylphenyl)amino]-4-pyrimidinyl}imidazo[1,2-a]pyridin-2-yl)benzamide], the IC50 in data set [1] was below 250 nM; in data set [2], below 100 nM; with COLO205 (colon) it was 250 to 1000 nM; in data set [3] it was below 100 nM.
Take `COc1cc(N2CCC(N3CCN(CCS(C)(=O)=O)CC3)CC2)ccc1Nc1nccc(-c2c(-c3cccc(C(=O)Nc4c(F)cccc4F)c3)nc3c(F)cccn23)n1` [Example 193, N-(2,6-difluorophenyl)-3-[8-fluoro-3-(2-{[2-(methyloxy)-4-(4-{4-[2-(methylsulfonyl)ethyl]-1-piperazinyl}-1-piperidinyl)phenyl]amino}-4-pyrimidinyl)imidazo[1,2-a]pyridin-2-yl]benzamide]: the half-maximal inhibitory concentration (IC50) was below 250 nM in data set [1], 100 to 500 nM in data set [2], above 1000 nM in the data set with COLO205 (colon) and below 100 nM in data set [3].
In the same order, the values of `CCCc1cc(C2CCN(CCS(C)(=O)=O)CC2)ccc1Nc1nccc(-c2c(-c3cccc(C(=O)Nc4c(F)cccc4F)c3)nc3ccccn23)n1` [Example 166, N-(2,6-difluorophenyl)-3-(3-{2-[(4-{1-[2-(methylsulfonyl)ethyl]-4-piperidinyl}-2-propylphenyl)amino]-4-pyrimidinyl}imidazo[1,2-a]pyridin-2-yl)benzamide] are 250 to 1000 nM, 100 to 500 nM, 250 to 1000 nM and below 100 nM.
In the case of `COc1cc(N2CCC(N3CCC(F)CC3)CC2)ccc1Nc1nccc(-c2c(-c3cccc(C(=O)Nc4c(F)cccc4F)c3)nc3ccccn23)n1` [Example 51, N-(2,6-difluorophenyl)-3-[3-(2-{[4-(4-fluoro-1,4′-bipiperidin-1′-yl)-2-(methyloxy)phenyl]amino}-4-pyrimidinyl)imidazo[1,2-a]pyridin-2-yl]benzamide], the half-maximal inhibitory concentration (IC50) in data set [1] was 250 to 1000 nM; in data set [2], 100 to 500 nM; in the data set with COLO205 (colon), 250 to 1000 nM; in data set [3] it was below 100 nM.
Take `COc1cc(N2CCN(S(C)(=O)=O)CC2)ccc1Nc1nccc(-c2c(-c3cccc(C(=O)Nc4c(F)cccc4F)c3)nc3ccccn23)n1` [Example 234, N-(2,6-difluorophenyl)-3-{3-[2-({2-(methyloxy)-4-[4-(methylsulfonyl)-1-piperazinyl]phenyl}amino)-4-pyrimidinyl}imidazo[1,2-a]pyridin-2-yl]benzamide]: the IC50 in data set [1] is below 250 nM; in data set [2] it was below 100 nM; in the data set on COLO205 (colon) it was 250 to 1000 nM; in data set [3], below 100 nM.
